From the supplement of paper PMC4862054

How the values were obtained:
Test in all cases: normalised viability (% of control), CellTiter-Blue; higher = more viable cells (about 100 = DMSO control)
Settings in all cases: incubation time: 72 h
BT-474 [1] = tested on: BT-474
In short: (§1)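 Vehicle (100) and a positive kill control (0) anchored the normalisation of each plate, and Z'-factor was used for quality control. Breast cancer cell lines in 20 µl suspension were incubated 72 h over compound in 5 µl medium in 384-well plates, followed by CellTiter-Blue at 560/590 nm. The value is normalised viability at a single listed concentration of the series.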

BT-549 = tested on: BT-549
In short: as §1

CAL-120 = tested on: CAL-120
In short: as §1

CAL-148 [2] = tested on: CAL-148
In short: as §1

CAL-51 [3] = tested on: CAL-51
In short: as §1

CAL-85-1 [4] = tested on: CAL-85-1
In short: as §1

DU-4475 [5] = tested on: DU-4475
In short: as §1

HCC1599 [6] = tested on: HCC1599
In short: as §1

HCC1937 = tested on: HCC1937
In short: as §1

HDQ-P1 = tested on: HDQ-P1
In short: as §1

Hs578T [7] = tested on: Hs578T
In short: as §1

MDA-MB-231 [8] = tested on: MDA-MB-231
In short: as §1

MDA-MB-436 = tested on: MDA-MB-436
In short: as §1

MDA-MB-453 [9] = tested on: MDA-MB-453
In short: as §1

MDA-MB-468 [10] = tested on: MDA-MB-468
In short: as §1

MFM-223 [11] = tested on: MFM-223
In short: as §1

SK-BR-3 [12] = tested on: SK-BR-3
In short: as §1

BT-474 [13] = tested on: BT-474; remark: listed apart in the source
In short: as §1

CAL-148 [14] = tested on: CAL-148; remark: listed apart in the source
In short: as §1

CAL-51 [15] = tested on: CAL-51; remark: listed apart in the source
In short: as §1

CAL-85-1 [16] = tested on: CAL-85-1; remark: listed apart in the source
In short: as §1

DU-4475 [17] = tested on: DU-4475; remark: listed apart in the source
In short: as §1

HCC1599 [18] = tested on: HCC1599; remark: listed apart in the source
In short: as §1

Hs578T [19] = tested on: Hs578T; remark: listed apart in the source
In short: as §1

MDA-MB-231 [20] = tested on: MDA-MB-231; remark: listed apart in the source
In short: as §1

MDA-MB-453 [21] = tested on: MDA-MB-453; remark: listed apart in the source
In short: as §1

MDA-MB-468 [22] = tested on: MDA-MB-468; remark: listed apart in the source
In short: as §1

MFM-223 [23] = tested on: MFM-223; remark: listed apart in the source
In short: as §1

SK-BR-3 [24] = tested on: SK-BR-3; remark: listed apart in the source
In short: as §1

N[C@@H](CSC(c1ccccc1)(c1ccccc1)c1ccccc1)C(=O)O [S-trityl-L-cysteine]
Settings	normalised viability [%]
BT-474 [1], 400 nM	109
BT-474 [13], 40 nM	111
BT-474 [13], 4000 nM	94
BT-474 [13], 40000 nM	25.9
BT-549, 400 nM	75.4
CAL-51 [3], 40 nM	87.4
CAL-51 [15], 12 nM	87
CAL-51 [15], 120 nM	90.5
CAL-51 [15], 400 nM	87
CAL-85-1 [4], 40 nM	101
CAL-85-1 [16], 12 nM	105
CAL-85-1 [16], 120 nM	106
CAL-85-1 [16], 400 nM	101
CAL-120, 400 nM	110
CAL-148 [2], 40 nM	106
CAL-148 [14], 12 nM	112
CAL-148 [14], 120 nM	114
CAL-148 [14], 400 nM	114
DU-4475 [5], 40 nM	99.9
DU-4475 [17], 12 nM	117
DU-4475 [17], 120 nM	92.9
DU-4475 [17], 400 nM	102
HCC1599 [6], 400 nM	89.6
HCC1599 [18], 40 nM	94.9
HCC1599 [18], 4000 nM	99.3
HCC1599 [18], 40000 nM	102
HCC1937, 400 nM	81.5
HDQ-P1, 40 nM	94.1
Hs578T [7], 400 nM	92.2
Hs578T [19], 40 nM	114
Hs578T [19], 4000 nM	36.6
Hs578T [19], 40000 nM	16.8
MDA-MB-231 [8], 400 nM	91.7
MDA-MB-231 [20], 40 nM	86.8
MDA-MB-231 [20], 4000 nM	27.9
MDA-MB-231 [20], 40000 nM	25.9
MDA-MB-436, 400 nM	98.6
MDA-MB-453 [9], 40 nM	88.8
MDA-MB-453 [21], 12 nM	91.7
MDA-MB-453 [21], 120 nM	80.9
MDA-MB-453 [21], 400 nM	101
MDA-MB-468 [10], 400 nM	101
MDA-MB-468 [22], 40 nM	102
MDA-MB-468 [22], 4000 nM	34.5
MDA-MB-468 [22], 40000 nM	34.6
MFM-223 [11], 400 nM	99.8
MFM-223 [23], 40 nM	102
MFM-223 [23], 4000 nM	100
MFM-223 [23], 40000 nM	78.2
SK-BR-3 [12], 400 nM	95.8
SK-BR-3 [24], 40 nM	112
SK-BR-3 [24], 4000 nM	18.3
SK-BR-3 [24], 40000 nM	20.1

CN(N=O)C(=O)N[C@@H](C=O)[C@@H](O)[C@H](O)[C@H](O)CO [Streptozocin]
Settings	normalised viability [%]
BT-474 [1], 100 nM	104
BT-474 [13], 10 nM	125
BT-474 [13], 1000 nM	98.6
BT-474 [13], 10000 nM	135
BT-549, 100 nM	104
CAL-51 [3], 10 nM	109
CAL-51 [15], 3 nM	115
CAL-51 [15], 30 nM	112
CAL-51 [15], 100 nM	107
CAL-85-1 [4], 10 nM	105
CAL-85-1 [16], 3 nM	95.7
CAL-85-1 [16], 30 nM	92.1
CAL-85-1 [16], 100 nM	95.4
CAL-120, 100 nM	105
CAL-148 [2], 10 nM	99.6
CAL-148 [14], 3 nM	98.6
CAL-148 [14], 30 nM	97.3
CAL-148 [14], 100 nM	99.3
DU-4475 [5], 10 nM	99.1
DU-4475 [17], 3 nM	101
DU-4475 [17], 30 nM	96.5
DU-4475 [17], 100 nM	103
HCC1599 [6], 100 nM	101
HCC1599 [18], 10 nM	104
HCC1599 [18], 1000 nM	85.9
HCC1599 [18], 10000 nM	113
HCC1937, 100 nM	90.7
HDQ-P1, 10 nM	106
Hs578T [7], 100 nM	102
Hs578T [19], 10 nM	110
Hs578T [19], 1000 nM	103
Hs578T [19], 10000 nM	101
MDA-MB-231 [8], 100 nM	101
MDA-MB-231 [20], 10 nM	101
MDA-MB-231 [20], 1000 nM	138
MDA-MB-231 [20], 10000 nM	110
MDA-MB-436, 100 nM	101
MDA-MB-453 [9], 10 nM	112
MDA-MB-453 [21], 3 nM	116
MDA-MB-453 [21], 30 nM	89.4
MDA-MB-453 [21], 100 nM	93
MDA-MB-468 [10], 100 nM	106
MDA-MB-468 [22], 10 nM	107
MDA-MB-468 [22], 1000 nM	105
MDA-MB-468 [22], 10000 nM	113
MFM-223 [11], 100 nM	90.6
MFM-223 [23], 10 nM	93.1
MFM-223 [23], 1000 nM	93
MFM-223 [23], 10000 nM	86.8
SK-BR-3 [12], 100 nM	95.7
SK-BR-3 [24], 10 nM	101
SK-BR-3 [24], 1000 nM	110
SK-BR-3 [24], 10000 nM	126

O=C1CCC(N2C(=O)c3ccccc3C2=O)C(=O)N1 (centres undefined) [Thalidomide]
Settings	normalised viability [%]
BT-474 [1], 100 nM	109
BT-474 [13], 10 nM	110
BT-474 [13], 1000 nM	110
BT-474 [13], 10000 nM	108
BT-549, 100 nM	88
CAL-51 [3], 10 nM	90.7
CAL-51 [15], 3 nM	90.8
CAL-51 [15], 30 nM	90.7
CAL-51 [15], 100 nM	91.3
CAL-85-1 [4], 10 nM	100
CAL-85-1 [16], 3 nM	102
CAL-85-1 [16], 30 nM	98.8
CAL-85-1 [16], 100 nM	101
CAL-120, 100 nM	105
CAL-148 [2], 10 nM	107
CAL-148 [14], 3 nM	115
CAL-148 [14], 30 nM	116
CAL-148 [14], 100 nM	116
DU-4475 [5], 10 nM	91.3
DU-4475 [17], 3 nM	98.9
DU-4475 [17], 30 nM	99.7
DU-4475 [17], 100 nM	109
HCC1599 [6], 100 nM	108
HCC1599 [18], 10 nM	101
HCC1599 [18], 1000 nM	86
HCC1599 [18], 10000 nM	102
HCC1937, 100 nM	90.2
HDQ-P1, 10 nM	101
Hs578T [7], 100 nM	91.9
Hs578T [19], 10 nM	97.8
Hs578T [19], 1000 nM	108
Hs578T [19], 10000 nM	106
MDA-MB-231 [8], 100 nM	106
MDA-MB-231 [20], 10 nM	97.2
MDA-MB-231 [20], 1000 nM	109
MDA-MB-231 [20], 10000 nM	124
MDA-MB-436, 100 nM	105
MDA-MB-453 [9], 10 nM	98.3
MDA-MB-453 [21], 3 nM	99
MDA-MB-453 [21], 30 nM	99.3
MDA-MB-453 [21], 100 nM	89.7
MDA-MB-468 [10], 100 nM	98.2
MDA-MB-468 [22], 10 nM	97.9
MDA-MB-468 [22], 1000 nM	101
MDA-MB-468 [22], 10000 nM	105
MFM-223 [11], 100 nM	90.7
MFM-223 [23], 10 nM	103
MFM-223 [23], 1000 nM	96.6
MFM-223 [23], 10000 nM	91.4
SK-BR-3 [12], 100 nM	111
SK-BR-3 [24], 10 nM	97.9
SK-BR-3 [24], 1000 nM	112
SK-BR-3 [24], 10000 nM	109
